Data published in patent publication US20070149480A1 (Alcon, Inc., priority 2005, published 2007).
Values after ≈ are worked out from the molar mass of the structure shown.

How the values were obtained:
[1] = Solubility of RTKi in phosphate buffer vehicle containing hydroxypropyl cyclodextrin (HPCD); format: physicochemical; conditions: for solubility enhancement: 10% HPCD in phosphate buffer vs phosphate buffer alone; for solubility: RTKi Solubility
Text: (§1) The present inventors have discovered that use of cyclodextrin derivatives to solubilize highly insoluble anti-angiogenic active compounds provides an efficacious ophthalmic formulation. […] Prototype intravitreal vehicle is shown in Example 1, and intravitreal and PJ formulations of the active compound containing HPCD are provided in Examples 2 and 3, respectively.
Solubility of RTKi in phosphate buffer vehicle containing various amount of hydroxypropyl cyclodextrin (HPCD).

[2] = Solubility of RTKi in phosphate buffer vehicle containing sulfobutylether beta cyclodextrin (SBCD); format: physicochemical; conditions: for solubility: RTKi Solubility
Text: as §1

[3] = tested on: FGFR; assay: Kinase inhibition, cell-free enzymatic assay; format: biochemical; conditions: 1 mM ATP
Experimental: All data reported as IC50 values for kinase inhibition in cell-free enzymatic assays; ND denotes no data. Values determined @ 1 mM ATP.

RTKi Solubility ([1]; 10% HPCD Phosphate Buffer): 1098.8 µg/mL
solubility expressed as percent ([1]; 10% HPCD in phosphate buffer): about 0.1%
solubility enhancement [1]: More than 1800 fold
solubility enhancement ([1]; listed as active compound): approximately 1800 fold
solubility ([1]; phosphate buffer (0% HPCD), pH 7.2, aqueous buffer, pH 7.2): 0.59 µg/mL (≈ 1.57 µM)
solubility ([1]; phosphate buffer with 1% HPCD, pH 7.2, aqueous with cosolvent or surfactant or cyclodextrin, 1% HPCD in Phosphate Buffer): 82.3 µg/mL (≈ 219 µM)
solubility ([1]; phosphate buffer with 5% HPCD, pH 7.2, aqueous with cosolvent or surfactant or cyclodextrin, 5% HPCD Phosphate Buffer): 527 µg/mL (≈ 1400 µM)
solubility ([1]; phosphate buffer with 10% HPCD, pH 7.2, aqueous with cosolvent or surfactant or cyclodextrin, 10% HPCD Phosphate Buffer): 1090 µg/mL (≈ 2900 µM)
RTKi Solubility ([2]; 10% SBCD Phosphate Buffer): 2526.5 µg/mL
solubility ([2]; phosphate buffer (0% SBCD), pH 7.2, aqueous buffer): 0.59 µg/mL (≈ 1.57 µM)
solubility ([2]; phosphate buffer with 1% SBCD, pH 7.2, aqueous with cosolvent or surfactant or cyclodextrin, 1% SBCD in Phosphate Buffer): 188 µg/mL (≈ 501 µM)
solubility ([2]; phosphate buffer with 2.5% SBCD, pH 7.2, aqueous with cosolvent or surfactant or cyclodextrin, 2.5% SBCD Phosphate Buffer): 641 µg/mL (≈ 1710 µM)
solubility ([2]; phosphate buffer with 5% SBCD, pH 7.2, aqueous with cosolvent or surfactant or cyclodextrin, 5% SBCD Phosphate Buffer): 1090 µg/mL (≈ 2910 µM)
solubility ([2]; phosphate buffer with 10% SBCD, pH 7.2, aqueous with cosolvent or surfactant or cyclodextrin, 10% SBCD Phosphate Buffer): 2520 µg/mL (≈ 6710 µM)
solubility ([2]; phosphate buffer with 20% SBCD, pH 7.2, aqueous with cosolvent or surfactant or cyclodextrin, 20% SBCD Phosphate Buffer): 4120 µg/mL (≈ 11000 µM)
IC50 [3]: > 12.5 µM
SMILES: Cc1ccc(F)c(NC(=O)Nc2ccc(-c3cccc4[nH]nc(N)c34)cc2)c1 [RTKi, N-[4-(3-amino-1H-indazol-4-yl)phenyl]-N′-(2-fluoro-5-methylphenyl) urea]
